The record followed here is US20100168090A1, “Active Ingredient Combinations With Insecticidal and Acaricidal Properties” (BAYER CROPSCIENCE AG, priority 2006, published 2010).

Common to all, as to assay type: in vivo
Test [1] has as its system green peach aphid (Myzus persicae). Briefly: Myzus persicae test (cabbage leaves dipped). To be noted: single active compound; for Kill in % after 1 d: Table A 1. An excerpt:
(§1) The expected action for a given combination of two active compounds can be calculated as follows, according to S. R. Colby, Weeds 15 (1967), 20-22:
(§2) If • X is the kill rate, expressed as a percentage of the untreated control, when employing active compound A at an application rate of m g/ha or in a concentration of m ppm, • Y is the kill rate, expressed as a percentage of the untreated control, when employing active compound B at an application rate of n g/ha or in a concentration of n ppm and • E is the kill rate, expressed as a percentage of the untreated control, when employing active compounds A and B at application rates of m and n g/ha or in a concentration of m and n ppm, then
(§3) If the actual kill rate exceeds the calculated value, the kill of the combination is superadditive, i.e. a synergistic effect is present. In this case, the actually observed kill rate must exceed the value calculated using the above formula for the expected kill rate (E).
(§4) Solvent: 7 parts by weight of dimethylformamide Emulsifier: 2 parts by weight of alkylaryl polyglycol ether
(§5) To produce a suitable preparation of active compound, 1 part by weight of active compound is mixed with the stated amounts of solvent and emulsifier, and the concentrate is diluted with emulsifier-containing water to the desired concentration.
Cabbage leaves (Brassica oleracea) which are heavily infested by the green peach aphid (Myzus persicae) are treated by being dipped into the active compound preparation of the desired concentration.
(§6) After the desired period of time, the kill in % is determined. 100% means that all aphids have been killed; 0% means that none of the aphids have been killed. The kill rates determined are entered into Colby's formula.

Test [2] relates to larvae of the mustard beetle (Phaedon cochleariae). Briefly: Phaedon cochleariae larvae test (cabbage leaves dipped). To be noted: single active compound.
Text: as §1, §2, §3, §4
To produce a suitable preparation of active compound, 1 part by weight of active compound is mixed with the stated amounts of solvents and emulsifier, and the concentrate is diluted with emulsifier-containing water to the desired concentration.
Cabbage leaves (Brassica oleracea) are treated by being dipped in the active compound preparation of the desired concentration and are populated with larvae of the mustard beetle (Phaedon cochleariae) while the leaves are still moist.
After the desired period of time, the kill in % is determined. 100% means that all beetle larvae have been killed; 0% means that none of the beetle larvae have been killed. The kill rates determined are entered into Colby's formula.

For test [3], the system named is cotton aphid (Aphis gossypii). As to the kind of experiment: Aphis gossypii test (cotton leaves dipped). The settings on record: single active compound.
Text: as §1, §2, §3, §4, §5
Cotton leaves (Gossypium herbaceum) which are heavily infested by the cotton aphid (Aphis gossypii) are treated by being dipped into the active compound preparation of the desired concentration.
as §6

For the compound `CCOC(=O)OC1=C(c2cc(C)ccc2C)C(=O)NC12CCC(OC)CC2` (stereo not shown) [compound (I-2-a)], the “Kill in % after 1 d” value in test [1] (4 ppm) came to 0%; in test [3] (20 ppm) it was 10%. In addition, the “Kill in % after 6 d” value in test [1] (Table A 3, 4 ppm) turned out to be 85%; in test [2] (20 ppm), 10%.
For `C/C(=N\C#N)N(C)Cc1ccc(Cl)nc1` [acetamiprid (II-e), acetamiprid], in test [1] (Table A 3, 0.16 ppm), the “Kill in % after 6 d” value amounted to 10%.
In the case of `CO[C@H]1CC[C@]2(CC1)NC(=O)C(c1cc(C)ccc1C)=C2O` [compound (I-1)], the “Kill in % after 6 d” value in test [1] (Table A 2, 0.8 ppm) was 5%; in test [2] (20 ppm), 10%.
On to `O=[N+]([O-])/N=C1\NCCN1Cc1cnc(Cl)s1` [imidaclothiz (II n), imidaclothiz], for which, in test [1] (Table A 3, 0.16 ppm), the “Kill in % after 6 d” value turned out to be 0%.
Take `CN/C(=N/CC1CCOC1)N[N+](=O)[O-]` (stereo not shown) [dinotefuran (II l), dinotefuran]: in test [1] (Table A 3, 0.16 ppm), the “Kill in % after 6 d” value is reported as 0%. For the same compound, the “Kill in % after 1 d” value in test [3] (4 ppm) is 30%.
For `COC1CCC2(CC1)NC(=O)C(c1cc(C)ccc1C)=C2O` (stereo not shown) [compound (I-1-a)], the “Kill in % after 6 d” value in test [1] (Table A 2, 0.8 ppm) amounted to 0%; in test [2] (20 ppm) it was 20%.
Take `CN1COCN(Cc2cnc(Cl)s2)/C1=N\[N+](=O)[O-]` [thiamethoxam (IIg), thiamethoxam]: the “Kill in % after 6 d” value in test [2] (0.8 ppm) was 0%.
Same read-out and setting: as for `N#C/N=C1\SCCN1Cc1ccc(Cl)nc1` [thiacloprid (IIk), thiacloprid], the figure is 0%; as for `CN/C(=N\[N+](=O)[O-])NCc1cnc(Cl)s1` [clothianidin (IIm), clothianidin], 25%.
For the compound `O=[N+]([O-])NC1=NCCN1Cc1ccc(Cl)nc1` [imidacloprid (II-a), imidacloprid], the “Kill in % after 1 d” value in test [1] (0.16 ppm) was 15%. Further, the “Kill in % after 6 d” value in test [1] (Table A 2, 0.032 ppm) was 5%; in test [2] (0.8 ppm), 0%.
Consider `CCOC(=O)OC1=C(c2cc(C)ccc2C)C(=O)N[C@]12CC[C@@H](OC)CC2` [compound (I-2)], for which the entries for the “Kill in % after 1 d” value in test [1] (4 ppm) and in test [3] (20 ppm) were 0% and 5%, respectively. The “Kill in % after 6 d” value in test [1] (Table A 3, 4 ppm) was determined as 80%; in test [2] (20 ppm), 35%.
